{"source": "ChEMBL document CHEMBL1201862", "about": "“PubChem BioAssay data set” (2004)", "key": {"[1]": {"assay": "viability of PTEN-deleted HCT116 cells – cell-based, HCT116 PTEN knockout, dose response (AID 1047);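 also: cells exposed to compound for 60 hours before readout; potency for loss of cell viability measured by luminescence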", "assay_type": "functional"}, "[2]": {"assay": "viability of HCT116 lacking mutant beta-catenin – cell-based, human colon tumor, dose response (AID 1045);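 also: cells exposed to compound for 60 hours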", "assay_type": "functional"}, "Cytochrome P450 2D6": {"target": "Cytochrome P450 2D6 (Homo sapiens, UniProt P10635)", "sequence (P10635 whole entry)": "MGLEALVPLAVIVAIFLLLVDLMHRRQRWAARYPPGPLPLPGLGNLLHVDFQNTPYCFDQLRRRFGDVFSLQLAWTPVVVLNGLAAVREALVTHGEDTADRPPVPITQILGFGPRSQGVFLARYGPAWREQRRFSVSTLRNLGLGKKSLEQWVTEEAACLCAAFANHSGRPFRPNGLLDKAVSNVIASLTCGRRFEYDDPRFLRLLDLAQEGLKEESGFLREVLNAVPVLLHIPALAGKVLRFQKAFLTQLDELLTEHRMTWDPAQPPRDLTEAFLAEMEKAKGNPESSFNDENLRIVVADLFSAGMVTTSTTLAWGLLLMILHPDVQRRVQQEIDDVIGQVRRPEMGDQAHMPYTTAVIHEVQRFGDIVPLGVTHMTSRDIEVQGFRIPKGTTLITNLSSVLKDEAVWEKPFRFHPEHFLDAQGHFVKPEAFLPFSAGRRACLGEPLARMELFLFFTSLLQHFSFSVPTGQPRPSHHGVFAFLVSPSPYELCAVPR"}, "Cytochrome P450 3A4": {"target": "Cytochrome P450 3A4 (Homo sapiens, UniProt P08684)", "sequence (P08684 whole entry)": "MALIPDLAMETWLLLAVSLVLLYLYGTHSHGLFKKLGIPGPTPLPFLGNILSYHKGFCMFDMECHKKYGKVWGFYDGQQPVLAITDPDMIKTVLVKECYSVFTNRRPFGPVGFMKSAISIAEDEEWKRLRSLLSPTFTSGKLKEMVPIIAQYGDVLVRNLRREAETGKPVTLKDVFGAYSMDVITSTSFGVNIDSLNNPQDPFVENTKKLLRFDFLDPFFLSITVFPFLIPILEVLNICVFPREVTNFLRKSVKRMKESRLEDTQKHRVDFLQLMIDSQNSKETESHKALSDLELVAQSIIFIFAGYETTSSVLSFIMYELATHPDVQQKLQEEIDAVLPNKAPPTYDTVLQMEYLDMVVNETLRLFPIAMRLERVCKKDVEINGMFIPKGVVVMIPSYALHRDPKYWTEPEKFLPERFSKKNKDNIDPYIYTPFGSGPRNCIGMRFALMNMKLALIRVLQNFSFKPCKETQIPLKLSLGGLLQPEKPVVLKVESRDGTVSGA"}, "[3]": {"assay": "reduction of Shn3 3'UTR-driven luciferase in osteoblasts – cell-based, Clone20 osteoblasts, firefly luciferase, cherry-picked, dose response (AID 624132)", "assay_type": "functional"}, "[4]": {"assay": "loss of viability in HepG2 cells – cell-based, CellTiter-Glo, cherry-picked, cytotoxicity control for Shn3 inhibitor project, dose response (AID 624134)", "assay_type": "functional"}, "[5]": {"assay": "non-specific 3'UTR reporter inhibition in Clone20-Shn3RL – cell-based, Renilla luciferase, cherry-picked, counter-screen for Shn3 inhibitor project, dose response (AID 624133)", "assay_type": "functional"}, "[6]": {"target": "T1, Heat shock factor protein 1 (Mus musculus, UniProt P38532)", "T1 sequence (P38532 whole entry)": "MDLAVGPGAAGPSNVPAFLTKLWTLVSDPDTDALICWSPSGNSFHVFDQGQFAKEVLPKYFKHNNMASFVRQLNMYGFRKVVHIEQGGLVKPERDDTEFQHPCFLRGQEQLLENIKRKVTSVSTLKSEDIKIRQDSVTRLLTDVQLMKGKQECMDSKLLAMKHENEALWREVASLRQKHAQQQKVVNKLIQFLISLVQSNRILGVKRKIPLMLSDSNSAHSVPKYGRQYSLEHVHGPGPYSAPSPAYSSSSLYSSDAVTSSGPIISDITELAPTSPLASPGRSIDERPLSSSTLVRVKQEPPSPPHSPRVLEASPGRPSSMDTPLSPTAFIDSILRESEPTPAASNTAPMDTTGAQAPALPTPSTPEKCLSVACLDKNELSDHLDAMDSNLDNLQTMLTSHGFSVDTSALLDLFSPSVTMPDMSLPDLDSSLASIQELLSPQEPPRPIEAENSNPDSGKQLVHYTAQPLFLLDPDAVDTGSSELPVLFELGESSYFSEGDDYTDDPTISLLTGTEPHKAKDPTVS", "assay": "decrease of HSF1-responsive luciferase luminescence – cell-based, NIH3T3, dose retest, confirmation (AID 2382);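 also: NIH3T3 fibroblasts with HSF1-driven luciferase reporter stressed by proteasome inhibitor MG132; luminescence from HSF1-driven luciferase expression after 8 hours of MG132 stress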", "assay_type": "functional"}, "[7]": {"assay": "viability of uninfected HEp-2 cells – cell-based, HTS, cytotoxicity control for RSV inhibitor project, dose response (AID 2410)", "assay_type": "functional", "conditions": "human respiratory syncytial virus"}, "Cytochrome P450 2C9": {"target": "Cytochrome P450 2C9 (Homo sapiens, UniProt P11712)", "sequence (P11712 whole entry)": "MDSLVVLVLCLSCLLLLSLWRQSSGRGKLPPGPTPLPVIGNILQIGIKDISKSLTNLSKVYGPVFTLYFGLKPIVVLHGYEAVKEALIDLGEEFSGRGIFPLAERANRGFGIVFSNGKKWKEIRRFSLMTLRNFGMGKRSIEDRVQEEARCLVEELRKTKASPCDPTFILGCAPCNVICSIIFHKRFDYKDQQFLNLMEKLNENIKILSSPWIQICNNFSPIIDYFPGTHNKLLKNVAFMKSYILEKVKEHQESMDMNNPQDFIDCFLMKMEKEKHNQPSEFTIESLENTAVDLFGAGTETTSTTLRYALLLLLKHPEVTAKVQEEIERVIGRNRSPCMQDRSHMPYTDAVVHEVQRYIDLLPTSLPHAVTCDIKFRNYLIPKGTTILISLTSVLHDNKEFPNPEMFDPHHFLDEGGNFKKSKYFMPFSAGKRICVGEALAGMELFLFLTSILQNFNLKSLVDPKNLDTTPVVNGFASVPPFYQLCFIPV"}, "Cytochrome P450 2C19": {"target": "Cytochrome P450 2C19 (Homo sapiens, UniProt P33261)", "sequence (P33261 whole entry)": "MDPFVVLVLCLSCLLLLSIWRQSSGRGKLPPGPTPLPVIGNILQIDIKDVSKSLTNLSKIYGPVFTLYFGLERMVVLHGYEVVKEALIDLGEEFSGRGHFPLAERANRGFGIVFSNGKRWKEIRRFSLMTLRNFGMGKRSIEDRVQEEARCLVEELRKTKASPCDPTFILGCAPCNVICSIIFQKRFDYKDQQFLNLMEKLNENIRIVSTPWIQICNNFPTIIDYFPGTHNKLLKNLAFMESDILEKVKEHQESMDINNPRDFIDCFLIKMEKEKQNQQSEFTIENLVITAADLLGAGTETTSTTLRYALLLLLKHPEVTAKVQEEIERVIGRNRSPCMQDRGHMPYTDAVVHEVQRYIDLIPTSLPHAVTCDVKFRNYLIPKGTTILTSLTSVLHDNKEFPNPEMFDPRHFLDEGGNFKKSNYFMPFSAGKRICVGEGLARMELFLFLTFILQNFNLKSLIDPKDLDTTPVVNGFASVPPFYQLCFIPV", "assay": "Cytochrome panel assay with activity outcomes. Panel member name: p450-cyp2c19 Compounds with AC50 equal or less than 10 uM are considered active", "assay_type": "functional"}, "cells": {"assay": "cells", "assay_type": "functional"}, "[8]": {"target": "T2, Corticotropin-releasing factor receptor 2/Corticotropin-releasing factor-binding protein (Homo sapiens, UniProt P24387+Q13324)", "T2 sequence (Q13324 whole entry)": "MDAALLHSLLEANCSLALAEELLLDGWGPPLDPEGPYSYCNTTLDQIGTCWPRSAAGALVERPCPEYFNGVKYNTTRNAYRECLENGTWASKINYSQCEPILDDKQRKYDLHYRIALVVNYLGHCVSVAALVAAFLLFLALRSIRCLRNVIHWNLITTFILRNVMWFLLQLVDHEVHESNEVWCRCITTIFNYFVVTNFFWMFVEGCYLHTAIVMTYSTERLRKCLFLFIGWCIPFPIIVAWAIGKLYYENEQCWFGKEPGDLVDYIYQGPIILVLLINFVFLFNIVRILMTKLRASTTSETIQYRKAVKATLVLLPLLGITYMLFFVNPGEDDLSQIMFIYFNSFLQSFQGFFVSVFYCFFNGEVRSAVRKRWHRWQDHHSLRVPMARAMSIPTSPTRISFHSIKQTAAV", "T2 sequence (P24387 whole entry)": "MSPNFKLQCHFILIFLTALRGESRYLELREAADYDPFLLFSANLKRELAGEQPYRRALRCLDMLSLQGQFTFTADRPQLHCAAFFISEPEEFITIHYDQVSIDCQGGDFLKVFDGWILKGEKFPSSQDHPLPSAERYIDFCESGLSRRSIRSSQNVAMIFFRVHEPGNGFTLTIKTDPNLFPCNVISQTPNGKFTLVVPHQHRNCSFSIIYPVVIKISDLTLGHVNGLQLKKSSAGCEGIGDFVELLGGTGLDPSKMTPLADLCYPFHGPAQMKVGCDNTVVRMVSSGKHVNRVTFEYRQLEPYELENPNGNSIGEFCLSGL", "assay": "activators of CRF receptor 2 with binding protein – uHTS hits, confirmation (AID 602473)", "assay_type": "functional", "conditions": "read-out: EC50_Mean"}, "[9]": {"target": "T3, Rac GTPase-activating protein 1 (Homo sapiens, UniProt Q9H0H5)", "T3 sequence (Q9H0H5 whole entry)": "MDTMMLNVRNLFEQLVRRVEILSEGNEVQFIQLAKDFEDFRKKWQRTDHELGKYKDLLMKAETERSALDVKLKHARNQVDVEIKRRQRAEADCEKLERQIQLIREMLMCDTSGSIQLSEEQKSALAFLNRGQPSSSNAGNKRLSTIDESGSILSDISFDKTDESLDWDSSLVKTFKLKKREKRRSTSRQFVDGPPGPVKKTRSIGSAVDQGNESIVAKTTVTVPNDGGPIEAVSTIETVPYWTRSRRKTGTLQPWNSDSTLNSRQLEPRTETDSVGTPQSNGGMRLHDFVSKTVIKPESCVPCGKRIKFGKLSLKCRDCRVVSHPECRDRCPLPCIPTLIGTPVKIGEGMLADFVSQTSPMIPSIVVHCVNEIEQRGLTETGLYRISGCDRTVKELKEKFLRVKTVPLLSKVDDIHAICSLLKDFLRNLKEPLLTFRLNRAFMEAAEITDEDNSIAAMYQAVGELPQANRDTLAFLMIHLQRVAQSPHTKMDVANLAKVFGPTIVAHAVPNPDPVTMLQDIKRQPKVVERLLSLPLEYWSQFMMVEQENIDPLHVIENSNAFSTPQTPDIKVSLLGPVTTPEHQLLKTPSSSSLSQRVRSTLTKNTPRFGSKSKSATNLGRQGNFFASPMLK", "assay": "blockers of MgcRacGAP-driven Rac1 GTP hydrolysis – biochemical, ADP Hunter fluorescence, primary and confirmatory, confirmation (AID 624330)", "assay_type": "functional"}, "[10]": {"assay": "Trypanosoma cruzi growth suppression in host cells – NIH3T3 host cells, beta-gal luminescence, confirmation (AID 2044);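 also: intracellular parasites grown in NIH/3T3 mouse fibroblasts as host cells; luminescent beta-galactosidase reporter signal from transgenic T. cruzi replicating inside host cells; inhibitors lower the luminescence signal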", "assay_type": "functional, cell-based"}, "[11]": {"assay": "NIH3T3 cell viability loss – ATP luminescence, mouse fibroblasts, counter-screen, dose response (AID 2010);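 also: cells exposed to compound for about 90 hours before reading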", "assay_type": "functional, cell-based"}}, "note": "Where “and” joins values, the source holds several entries; their conditions need not be identical. Equal entries are not always repeated. Calls of active or inactive are those of the source."}
{"smiles": "COc1ccccc1NCC(O)Cn1c2ccccc2c2ccccc21", "note": "(configuration not stated)", "values": [{"measurement": "EC50", "setting": "[1]", "value": "34.3 µM (active)"}, {"measurement": "EC50", "setting": "[2]", "value": "43.6 µM (active)"}]}
{"smiles": "Cc1cc2c(nc1C)CCCN2C[C@H](C)O/N=C1/[C@H]2O[C@@H]2[C@@H](O)[C@H]2[C@H]1CCn1c(=O)n(-c3ccccc3)c(=O)n12", "values": [{"measurement": "AC50", "setting": "Cytochrome P450 2D6", "value": "2.51 µM (inconclusive)"}, {"measurement": "AC50", "setting": "Cytochrome P450 3A4", "value": "6.31 µM (inconclusive)"}]}
{"smiles": "Cc1ccc(S(=O)(=O)N2CCN(c3ncnc4sccc34)CC2)cc1C", "values": [{"measurement": "AC50", "setting": "[3]", "value": "3.53 µM (active)"}, {"measurement": "AC50", "setting": "[4]", "value": "5.96 µM (active)"}, {"measurement": "AC50", "setting": "[5]", "value": "6.17 µM (active)"}]}
{"smiles": "Cc1ccc(NC(=O)COC(=O)Cn2cnc3ccccc32)cc1S(=O)(=O)N(C)C", "values": [{"measurement": "EC50", "setting": "[6]", "value": "> 195 µM (not active)"}]}
{"smiles": "Cc1c(C(=O)Nc2ccncc2)sc2nc(-c3ccc(F)cc3)cn12", "values": [{"measurement": "CC50", "setting": "[7]", "value": "5.09 µM (active)"}, {"measurement": "EC50", "setting": "[1]", "value": "27.9 µM (active)"}, {"measurement": "EC50", "setting": "[2]", "value": "29.3 µM (active)"}]}
{"smiles": "N#CC1=C(N)Oc2[nH]nc(CSc3ccccc3)c2C12C(=O)Nc1ccccc12", "note": "(configuration not stated)", "values": [{"measurement": "EC50", "setting": "[6]", "value": "> 195 µM (not active)"}]}
{"smiles": "N#Cc1ccc(C(c2nnnn2C2CCCC2)N2CCC(Cc3ccccc3)CC2)cc1", "note": "(configuration not stated)", "values": [{"measurement": "AC50", "setting": "Cytochrome P450 2D6", "value": "10 µM (inconclusive)"}, {"measurement": "AC50", "setting": "Cytochrome P450 2C9", "value": "11.2 µM (inconclusive)"}]}
{"smiles": "CCc1cc2c(nc1CC)CCN(CC/C(C)=N/OC[C@@H](O)[C@@H]1O[C@@H]3OC(C)(C)O[C@@H]3[C@H]1O)C2", "values": [{"measurement": "AC50", "setting": "Cytochrome P450 2C19; read-out: AC50", "value": "0.0316 µM (inconclusive)"}, {"measurement": "AC50", "setting": "Cytochrome P450 2D6", "value": "6.31 µM (inconclusive)"}, {"measurement": "AC50", "setting": "Cytochrome P450 3A4", "value": "6.31 µM (inconclusive)"}]}
{"smiles": "CC(C)COc1ccc(C2(C#N)CC[N+](C)(C)CC2)cc1.[Br-]", "values": [{"measurement": "AC50", "setting": "Cytochrome P450 2C19", "value": "inconclusive"}, {"measurement": "AC50", "setting": "Cytochrome P450 2D6", "value": "11.2 µM (inconclusive)"}, {"measurement": "AC50", "setting": "Cytochrome P450 3A4", "value": "39.8 µM (inconclusive)"}]}
{"smiles": "CCN(CC)S(=O)(=O)c1ccc(C(=O)OCn2nnc3ccccc3c2=O)cc1", "values": [{"measurement": "IC50", "setting": "cells", "value": "17.9 µM (active)"}]}
{"smiles": "CCOC(=O)c1sc(NC(=S)NC(=O)c2cccc(OC)c2)nc1C", "values": [{"measurement": "EC50", "setting": "[8]", "value": "15 µM (active)"}]}
{"smiles": "Cc1ccc2oc(=O)c(/C=C(\\O)c3ccccc3)nc2c1", "values": [{"measurement": "EC50", "setting": "[8]", "value": "12.1 µM (active)"}, {"measurement": "IC50", "setting": "[9]", "value": "48.6 µM (active)"}]}
{"smiles": "COC(=O)c1[nH]c2ccc(C)cc2c1NC(=O)NC1CCCCC1", "values": [{"measurement": "EC50", "setting": "[1]", "value": "20.2 µM (active)"}, {"measurement": "EC50", "setting": "[2]", "value": "26.5 µM (active)"}]}
{"smiles": "Cc1cccc(CN(C)CCc2ccccn2)c1", "values": [{"measurement": "EC50", "setting": "[10]", "value": "0.517 µM (active)"}, {"measurement": "EC50", "setting": "[11]", "value": "> 30 µM (not active)"}, {"measurement": "AC50", "setting": "Cytochrome P450 2D6", "value": "2.51 µM (inconclusive)"}, {"measurement": "AC50", "setting": "Cytochrome P450 2C9", "value": "0.355 µM (inconclusive)"}]}
{"smiles": "c1ncc(-c2ccoc2)c(NC2CC2)n1", "values": [{"measurement": "AC50", "setting": "Cytochrome P450 2C19; read-out: AC50", "value": "39.8 µM (inconclusive)"}, {"measurement": "AC50", "setting": "Cytochrome P450 2D6", "value": "25.1 µM (inconclusive)"}]}
{"smiles": "O=C(OCC12CC3CC(CC(C3)C1)C2)c1ccc(NCc2cc(O)ccc2O)cc1", "values": [{"measurement": "AC50", "setting": "[3]", "value": "3.25 µM (active)"}, {"measurement": "AC50", "setting": "[4]", "value": "66.7 µM (active)"}, {"measurement": "AC50", "setting": "[5]", "value": "7.26 µM (active)"}]}
{"smiles": "CCOCCN1CCC(OC(C)=O)C(C)C1", "note": "(configuration not stated)", "values": [{"measurement": "AC50", "setting": "Cytochrome P450 2C19; read-out: AC50", "value": "3.16 µM (inconclusive)"}, {"measurement": "AC50", "setting": "Cytochrome P450 2D6", "value": "12.6 µM (inconclusive)"}]}
{"smiles": "Clc1ccc(NN(Cc2ccncc2)c2ccc(Cl)cc2)cc1", "values": [{"measurement": "EC50", "setting": "[8]", "value": "> 53 µM (inactive)"}]}
{"smiles": "COCCNC(=S)N/N=C/c1ccc(-c2ccc([N+](=O)[O-])cc2)o1", "values": [{"measurement": "EC50", "setting": "[8]", "value": "5.95 µM (active)"}]}
{"smiles": "CCOc1cc(/C=N/NC(=O)CCn2nc(C)cc2C)ccc1O", "values": [{"measurement": "IC50", "setting": "[9]", "value": "61.5 µM (active)"}]}
{"smiles": "COc1ccccc1N1CCN(CCCCN2C(=O)c3ccccc3C2=O)CC1", "note": "[NAN-190]", "values": [{"measurement": "AC50", "setting": "Cytochrome P450 2D6", "value": "12.6 µM (inconclusive) and 10 µM (inconclusive)"}, {"measurement": "AC50", "setting": "Cytochrome P450 3A4", "value": "31.6 µM (inconclusive) and 1.58 µM (inconclusive)"}]}
